Data as given in patent publication EP0240854A1, “Bis-tert-butylamino-substituted 1,3,5-triazine derivatives, process for their preparation, medicaments containing these compounds, and their use” (HOECHST AKTIENGESELLSCHAFT, priority 1986, dated 1987).

What was measured:
Wistar Ratten [1] = experiment: Lick-shock-conflict test (Vogel); type: in vivo, Ratte; settings: Rattus norvegicus, po; for minimal effective dose: lowest dose with significant increase of lickings in the shock phase, read-out: Lick-Sh. Ratte MED; for change in vivo at 10 mg/kg: 10 mg/kg p.o.; for change in vivo at 10 mg/kg / change in vivo at 30 mg/kg: increase versus control group, read-out: Lick-Sh. Ratte prozentuale Zunahme der angenommenen Belohnungen (Wasser); for change in vivo at 30 mg/kg: 30 mg/kg p.o.
Source text: (§1) Die Angst-lösende (anxiolytische Wirkung) der erfindungsgemäßen Verbindungen wurde im "Lick-shock-conflict- Test" nach VOGEl und im "Geller-Seifter-Konflikt-Test" nach GELLER und SEIFTER an WISTAR-Ratten geprüft.
3. Lick-shock-conflict-Test
Methode (VOGEL, J.R., Psychopharmacologia 21, (1971), 1-7
Männliche Wistar Ratten aus eigener Aufzucht (SPF Hattersheim) im Gewicht zwischen 90 und 120 g werden verwendet. Den Tieren wird für 48 Stunden vor Testbeginn das Trinkwasser entzogen. Zum Test werden die Tiere in eine Plastikbox (14x12x28 cm, BxTxH) gesetzt, die mit einer Wasserflasche mit Metall-Trinkrohr ausgestattet ist und die außerdem erlaubt, über eine elektronische Schaltung die Anzahl der Kontakte der Zunge des Tieres mit dem Trinkrohr zu messen. Der Boden der Box besteht aus Metallstäben, die durch die Steuerungselektronik unter Strom gesetzt werden können. Die Tiere haben nach dem Einsetzen in die Box 5 min. Zeit, um das Trinkrohr zu finden und 50-mal daran zu lekken. Tiere, die das Trinkrohr innerhalb dieser Zeit nicht gefunden haben, werden für den Versuch nicht verwendet. Nach diesen 50 Leckvorgängen (lickings) werden Trinkrohr und Bodenstäbe für jeweils 5 sec unter Strom gesetzt (Gleichstrom 300 µA) und dann für weitere 5 sec. wieder freigegeben. Diese Folge wird alternierend für eine Zeit von 5 min. weitergeführt, wobei die Zahl der Trinkrohr-Kontakte des Tieres während der Reizstrom- und der reizstromfreien Phase auf verschiedenen elektronischen Zählern registriert werden.
Gruppen von jeweils acht Tieren pro Dosis werden mit den Prüfsubstanzen, die in einem 1 %igen Tylose-Gel aufgeschwemmt sind, oral per Schlundsonde behandelt. Das Injektionsvolumen beträgt 5 ml/kg Körpergewicht. Die Prüfung in der obg. Testapparatur erfolgt 1 und 2 Std. nach Applikation der Prüfsubstanzen. Die Anzahl der Trinkrohr-Kontakte in der Reizstrom-Phase dient als Prüf-Variable. Die mittlere Anzahl der Kontakte in dieser Phase bei der Kontrollgruppe wird zu 100 % gesetzt und Zu- oder Abnahme der Kontaktzahl bei den mit Prüfsubstanz behandelten Tieren wird prozentual in Bezug auf die Kontrollgruppe ausgedrückt.
Anxiolytika bewirken in diesem Test gewöhnlich eine deutliche Zunahme der Wasseraufnahme (lickings) in der Reizstrom-Phase gegenüber den unbehandelten Kontrollen. Falls eine lineare oder logarithmische Beziehung zwischen Dosis und Wirkung gegeben ist, wird eine ED + 100 (d.i. die Dosis, die eine Zunahme der Wasseraufnahme um 100 % gegenüber der Kontrollgruppe bewirkt) mittels Regressionsanalyse errechnet. Ist eine lineare Dosisabhängigkeit nicht gegeben, so wird eine minimal effektive Dosis (MED) bestimmt, d.i. die niedrigste Dosis der Prüfsubstanz, die noch eine statistisch signifikante Zunahme der Wasseraufnahme im Vergleich zur Kontrollgruppe bewirkt (p=0,05, DUNNET-Test).

[2] = system: Elektroschock-induzierte Krämpfe; experiment: Antagonism against electroshock-induced convulsions (Swinyard); type: in vivo; settings: Mus musculus, po, electroshock via corneal electrodes 1 h after test substance, tonic extensor convulsions; read-out: ECS Maus ED 50
Source text: (§2) Die Krampf-verhindernde (antikonvulsive) Wirkung der erfindungsgemäßen Verbindungen wurde an Mäusen gegen Pentetrazol- und gegen Elektroschock- induzierte Krämpfe in der Anordnung von SWINYARD geprüft.
2. Antagonismus gegen Elektroschock-induzierte Krämpfe (Maus).
Methode (E.A.SWINYARD, In: Experimental Models of Epilepsy, Raven Press, New York, 1972, p. 433-458):
Gruppen von 6 männlichen Mäusen (Stamm: NMRI, SPF-71, KF) im Gewicht von 18-22 g werden in diesem Versuch verwendet. Die zu prüfenden Substanzen werden in einer 1 %igen Aufschwemmung von Tylose (Methyl-hydroxy-ethyl-cellulose) in Wasser suspendiert und per Schlundsonde in einem Volumen von 10 ml/kg Körpergewicht oral verabreicht. Die Kontrollgruppe erhält ein entsprechendes Volumen Tylosesuspension ohne Prüfsubstanz. Eine Stunde nach Prüfsubstanzgabe wird den Tieren über Cornea-Elektroden ein Elektroschock verabreicht (Stromstärke 12-22 mA, Dauer 0,2 sec, 50 Hz), nachdem vorher an einer zweiten Kontrollgruppe die Stromstärke ermittelt worden war, die bei 100 % der Tiere eine tonischen Extensorkrampf der hinteren Extremitäten hervorruft. Die Anzahl der durch die Prüfsubstanz vor einem Extensorkrampf geschützten Tiere dient als Mass der antikonvulsiven Wirkung in diesem Test. Bei vorhandener Schutzwirkung der Prüfsubstanz wird eine mittlere effektive Dosis (ED-50) grafisch (Litchfield and Wilcoxon) oder rechnerisch (Probitanalyse) ermittelt.

Wistar Ratten [3] = experiment: Geller-Seifter conflict test; type: in vivo, Ratte; settings: for minimal effective dose: Rattus norvegicus, po, 0.5 h, p.o., 30 min before test, lowest dose with significant change of lever press rate, read-out: Geller Ratte MED
Source text: as §1
4. Geller-Seifter-Konflikt-Test
Methode (Geller, I.und Seifter, J., Psychopharmacologia 1 (1962), 482):
Männliche Wistar Ratten aus eigener Aufzucht (SPF Hattersheim) im Gewicht zwischen 240 und 370 g werden verwendet und Versuchsgruppen zu je 8 Tieren zugeordnet. Je 4 Tiere werden in Plastikkäfigen (56x38x20 cm) zusammengesetzt und durch abgewogene Futtermengen auf ca. 80 % ihres normalen Körpergewichts gehalten.
Die Tiere werden trainiert, in einer SKINNER-Box eine Taste zu drücken, um eine Belohnung in Form von gesüßter Kondensmilch zu erhalten. Die Box enthält zwei Tasten mit Mikroschaltern, einen Lautsprecher, ein Hauslicht, zwei Signallichter über den Tasten sowie einen Fußboden aus Metallstäben. Das Trainingsschema wurde der Arbeit von GELLER und SEIFTER (1962) in der Modifikation von DAVIDSON & COOK (Psychopharmacologia 15 (1969), 159-168) entlehnt: Jede Sitzung besteht aus vier 15-Minuten-Abschnitten, die alle aus einer 12-minütigen "Variable Interval" (VI) Phase und einer 3-minütigen "Fixed ration" (FR) Phase zusammengesetzt sind. Während der VI-Phase erhalten die Tiere auf Tastendruck Milchbelohnungen in einem durch einen Zufallsgenerator gesteuerten Intervall von 10-110 sec. mit einem Mittelwert um 60 15 sec. Während der FR-Phase erhalten die Tiere für jeden Tastendruck eine Belohnung, zusätzlich wird jedoch bei jedem 3. Tastendruck ein schmerzhafter elektrischer Reiz über die Fussbodenstäbe verabreicht, um eine Konfliktsituation zu erzeugen. Die Stromstärke des elektrischen Reizes wird für jedes Tier individuell so eingestellt (0,3-0,6 mA), daß die Tastendruckrate in der gesamten FR-Phase zwischen 5 und 15 liegt.
Das Training findet an 5 Tagen in der Woche statt, Versuche mit Prüfsubstanzen werden einmal wöchentlich durchgeführt. Da die Tiere als ihre eigene Kontrolle dienen, werden vor jedem Versuch mit Prüfsubstanzen mindestens zwei Vorwerte ohne Prüfsubstanz durchgeführt. Die zu prüfenden Verbindungen werden in einem 1 %igen Tylose-Gel suspendiert und 30 min vor Testbeginn oral per Schlundsonde in einem Volumen von 2 ml/kg verabreicht. Veränderungen der Tastendruckrate in der VI-Phase werden als Beeinflussung der motorischen Aktivität und Steigerung der Tastendruckrate in der FR-Phase werden als Anzeichnen für eine "Antikonflikt-" bzw. "anxiolytische" Wirkung gewertet. Bestimmt wird meist die minimal effektive Dosis (MED) der Prüfsubstanz, d.i. die niedrigste geprüfte Dosis, die noch eine statistisch signifikante Änderung der Tastendruckrate bewirkt (p=0,05; WILCOXON matched pairs signed rank test).

[4] = system: Pentetrazol-induzierte Krämpfe; experiment: Antagonism against pentetrazol-induced convulsions (Swinyard); type: in vivo, Maus; settings: p.o., pentetrazol 125 mg/kg s.c. 1 h after test substance, tonic extensor convulsions; for ED50: Mus musculus, po, 1 h, read-out: Ptz Maus ED 50
Source text: as §2
1. Antagonismus gegen Pentetrazol-induzierte Krämpfe (Maus)
Methode (E.A.SWINYARD, J.Pharmacol.Exp.Ther. 106, (1952), 319-330):
Gruppen von 10 männlichen Mäusen (Stamm: NMRI, SPF-71, KF) im Gewicht von 18-22 g werden in diesem Versuch verwendet. Die zu prüfenden Substanzen werden in einer 1 %-igen Aufschwemmung von ®Tylose (Methyl-hydroxy-ethyl-cellulose) in Wasser suspendiert und per Schlundsonde in einem Volumen von 10 ml/kg Körpergewicht oral verabreicht. Die Kontrollgruppe erhält ein entsprechendes Volumen Tylosesuspension ohne Prüfsubstanz. Pentetrazol (Cardiazol®) wird in wässriger Lösung in einer Dosis von 125 mg/kg Körpergewicht 1 Stunde nach Verabreichung der Prüfsubstanzen subcutan injiziert. Diese Dosis erzeugt bei 90-100 % der Kontrolltiere innerhalb der Beobachtungszeit von 60 Minuten nach der Injektion tonische Extensorkrämpfe der hinteren Extremitä-ten. Als Schutzwirkung der Prüfsubstanz wird gewertet, wenn die Anzahl der krampfenden Tiere gegenüber der Kontrollgruppe vermindert ist. Bei vorhandener Schutzwirkung der Prüfsubstanz wird eine mittlere effektive Dosis (ED-50) grafisch (Litchfield and Wilcoxon) oder rechnerisch (Probitanalyse) ermittelt.

Row | SMILES | minimal effective dose (Wistar Ratten [1]) [mg/kg] | change in vivo at 10 mg/kg (Wistar Ratten [1]) [%] | ED50 [2] [mg/kg] | minimal effective dose (Wistar Ratten [3]) [mg/kg] | ED50 [4] [mg/kg] | change in vivo at 30 mg/kg (Wistar Ratten [1]) [%] | Geller Ratte prozentuale Zunahme der angenommenen Belohnungen (Milch) (Wistar Ratten [3]; 3 mg/kg p.o.) [%] | Geller Ratte prozentuale Zunahme der angenommenen Belohnungen (Milch) (Wistar Ratten [3]; 10 mg/kg p.o.) [%] | Geller Ratte prozentuale Zunahme der angenommenen Belohnungen (Milch) (Wistar Ratten [3]; 30 mg/kg p.o.) [%] | Ptz Maus ED 50 ([4]; 60 min) [mg/kg] | Geller Ratte prozentuale Zunahme der angenommenen Belohnungen (Milch) (Wistar Ratten [3]; 2,5 mg/kg p.o.) [%]
1 | CN(C)Nc1nc(NC(C)(C)C)nc(NC(C)(C)C)n1 [Beispiel 6, 2,4-Bis-(tert.butylamino)-6-(Nʹ-dimethylhydrazino)-1,3,5-triazin] | 10 | 103 | 20.7 | 10 | 10 | – | – | – | – | – | –
2 | CC(C)C(C)Nc1nc(NC(C)(C)C)nc(NC(C)(C)C)n1 (stereo not drawn) [Beispiel 10, 2,4-Bis-(tert.-butylamino)-6-(1,2-dimethylpropylamino)-1,3,5-triazin] | 30 | – | 19.7 | – | 30 | 61 | – | – | – | – | –
3 | CC(C)(C)Nc1nc(NC(C)(C)C)nc(N2CCCCC2)n1 [Beispiel 1, 2,4-Bis-(tert.butylamino)-6-piperidino-1,3,5-triazin] | 10 | 63 | 32 | 3 | 4.2 | – | 91 | 97 | 382 | 2.1 | –
4 | CC(C)(C)Nc1nc(NC(C)(C)C)nc(N2CCCC2)n1 [Beispiel 2, 2,4-Bis-(tert.butylamino)-6-pyrrolidino-1,3,5-triazin] | 10 | 61 | 30 | – | 2.4 | 74 | – | – | – | – | –
5 | CC(C)(C)Nc1nc(NC2CCCC2)nc(NC(C)(C)C)n1 [Beispiel 9, 2,4-Bis-(tert.butylamino)-6-cyclopentylamino-1,3,5-triazin] | 30 | – | 24.7 | – | 10.3 | 68 | – | – | – | – | –
6 | CC(C)Nc1nc(NC(C)(C)C)nc(NC(C)(C)C)n1 [Beispiel 8, 2,4-Bis-(tert.butylamino)-6-isopropylamino-1,3,5-triazin] | 10 | 154 | 46.6 | 10 | 2.3 | 230 | – | 76 | 91 | – | –
7 | CC(C)(C)Nc1nc(NC(C)(C)C)nc(-n2ccnc2)n1 [Beispiel 5] | 30 | – | 30 | – | 12.2 | 34 | – | – | – | – | –
8 | CC(C)(C)Nc1nc(NN2CCOCC2)nc(NC(C)(C)C)n1 [Beispiel 4, 2,4-Bis-(tert.butylamino)-6-(morpholino-amino)-1,3,5-triazin] | 10 | 82 | 30 | 2.5 | 8.3 | – | – | – | – | – | 22
9 | CC(C)(C)Nc1nc(NN2CCCCC2)nc(NC(C)(C)C)n1 [Beispiel 3, 2,4-Bis-(tert.butylamino)-6-(piperidino-amino)-1,3,5-triazin] | 10 | 75 | 30 | – | 3.2 | 87 | – | – | – | – | –
10 | CCN(CC)c1nc(NC(C)(C)C)nc(NC(C)(C)C)n1 [Beispiel 7, 2,4-Bis-(tert.butylamino)-6-diethylamino-1,3,5-triazin] | 30 | – | 14.5 | – | 6.9 | 101 | – | – | – | – | –
